Reference: ChEMBL document CHEMBL1143877, “Xylose as a carrier for boron containing compounds” (2008)

Tests used:
[1] = tested on: T-24; assay: Inhibition of tumor growth in human T24 cells xenografted orally dosed SCIDnodCA mouse; type: functional; parameters: scale not given: the % may be the effect or the level left
[2] = tested on: T-24; assay: Inhibition of tumor growth in human T24 cells xenografted sc dosed SCIDnodCA mouse; type: functional; parameters: scale not given: the % may be the effect or the level left

## Oc1ccc2cc(O[C@@H]3OC[C@@H](O)[C@H](O)[C@H]3O)ccc2c1
[1]
  Activity: 70%
[2]
  Activity: 97%
